Results: ChEMBL document CHEMBL3244292, “Imidazo[4,5-f]quinolines. 2. A series of 9-(substituted amino)imidazo[4,5-f]quinolines as antitapeworm agents” (1977)
Activity calls are given as the source filed them. The calls are words filed in the database; no cut-off is given here.

What was measured:
Rodentolepis nana [1] = assay: Anthelmintic activity against Hymenolepis nana infected in mouse assessed as reduction in worm burden at 100 mg/kg administered bid for 3 days relative to control; assay type: functional; design: scale not given: the % may be the effect or the level left
Rodentolepis nana [2] = assay: Anthelmintic activity against Hymenolepis nana infected in mouse assessed as reduction in worm burden at 50 mg/kg administered bid for 3 days relative to control; assay type: functional; design: scale not given: the % may be the effect or the level left
Rodentolepis nana [3] = assay: Anthelmintic activity against Hymenolepis nana infected in mouse assessed as reduction in worm burden at 25 mg/kg administered bid for 3 days relative to control; assay type: functional; design: scale not given: the % may be the effect or the level left
Rodentolepis nana [4] = assay: Anthelmintic activity against Hymenolepis nana infected in mouse assessed as reduction in worm burden at 10 mg/kg administered bid for 3 days relative to control; assay type: functional, organism-based; design: dose 10 mg/kg

Structure (SMILES) | Activity (Rodentolepis nana [1]) [%] | Activity (Rodentolepis nana [2]) [%] | Activity (Rodentolepis nana [3]) [%] | Activity (Rodentolepis nana [4])
COc1cc(Nc2cc(C)nc3ccc4nc[nH]c4c23)c(OC)cc1Cl | 100 | 72 | 100 | inactive
CCCC(C)Oc1ccc(Nc2cc(C)nc3ccc4nc[nH]c4c23)cc1OC(C)CCC (configuration not stated) | 100 | 100 | 92 | inactive
CCCCCCOc1ccc(C(=N)N(CCCC)CCCC)c2ccccc12 [BUNAMIDINE] | 100 | 59 | 30 | inactive
Cc1cc(Nc2ccc(N3CCN(Cc4ccccc4)CC3)c(Cl)c2)c2c(ccc3nc[nH]c32)n1 | 100 | 100 | 77 | inactive
Cc1cc(Nc2ccc(OCC(C)C)c(OCC(C)C)c2)c2c(ccc3nc[nH]c32)n1 | 100 | 78 | 77 | inactive
CCCCOc1cc(Nc2cc(C)nc3ccc4nc[nH]c4c23)c(OCCCC)cc1Cl | 100 | 84 | 74 | inactive
Cc1cc(Nc2ccc(OCCC(C)C)c(OCCC(C)C)c2)c2c(ccc3nc[nH]c32)n1 | 100 | 100 | 67 | inactive
CC(=O)c1ccc(Nc2cc(C)nc3ccc4nc[nH]c4c23)cc1 | 100 | 100 | 56 | inactive
